We go through nine molecules from PubChem BioAssay (NCI).

Among the test systems are CAKI-1 renal; HCT-15 colon; HOP-92 NSCLC; HS 578T breast; NCI-H226 lung; OVCAR-4 ovarian; RXF 393 renal; SK-OV-3 ovarian; SNB-19 CNS; SR leukemia.
Holding throughout (assay): NCI anticancer screen, dose series, 48 h

Structures are written as SMILES.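 Cells were grown in 96-well plates and exposed to each compound for 48 hours at five concentrations; endpoints were interpolated linearly between bracketing concentrations, or set to the highest concentration if not reached. Abbreviation: GI50, concentration required for 50% inhibition of growth. At the TGI there is no net growth.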 Where only a bound is given, the exact number is not on record here.

As to `Cc1ccc(N(C=O)c2c([N+](=O)[O-])cc([N+](=O)[O-])c3c2=[N+]([O-])CN=3)cc1`, the TGI was above 100 µM in the test on CAKI-1 renal; 34.8 µM in the test on HCT-15 colon; 60.1 µM with HOP-92 NSCLC; above 100 µM in the test on HS 578T breast; above 100 µM with NCI-H226 lung; above 100 µM in the test with OVCAR-4 ovarian. The TGI was 42 µM in the test on RXF 393 renal, above 100 µM in the test with SK-OV-3 ovarian, above 100 µM with SNB-19 CNS and above 100 µM in the test with SR leukemia.
`O=C(O)CCC(c1ccccc1)(c1ccccc1)c1ccccc1`: the GI50 is 66.4 µM in the test on CAKI-1 renal and 49.5 µM in the test on RXF 393 renal. Also, the TGI in the test on CAKI-1 renal is above 100 µM; with HCT-15 colon, above 100 µM; with HOP-92 NSCLC it was above 73.9 µM; in the test with HS 578T breast it was above 100 µM; in the test with NCI-H226 lung it was above 100 µM; in the test with OVCAR-4 ovarian, above 100 µM. The TGI was above 100 µM in the test with RXF 393 renal, above 100 µM in the test with SK-OV-3 ovarian, above 100 µM with SNB-19 CNS and above 89 µM in the test with SR leukemia.
In the case of `CCc1nc(C)cn1C(=O)OCc1nc2nc(Cl)nc(N3CCOCC3)c2[nH]1`, the GI50 in the test on CAKI-1 renal was 0.406 µM; with HCT-15 colon, 0.677 µM; in the test on HOP-92 NSCLC it was 0.88 µM; with HS 578T breast it was 1.74 µM; in the test on NCI-H226 lung it was 1.84 µM; with OVCAR-4 ovarian it was 1.49 µM. Further, the GI50 is 0.658 µM in the test on RXF 393 renal, 4.04 µM in the test with SK-OV-3 ovarian, 1.43 µM in the test with SNB-19 CNS and 0.288 µM in the test with SR leukemia. Moreover, the TGI with CAKI-1 renal amounted to 1.71 µM; in the test with HCT-15 colon, 2.22 µM; in the test with HOP-92 NSCLC it was 2.41 µM; in the test with HS 578T breast it was 4.89 µM; in the test on NCI-H226 lung it was 4.11 µM; with OVCAR-4 ovarian, 2.93 µM. The TGI in the test on RXF 393 renal is 2.01 µM; with SK-OV-3 ovarian, 15.6 µM; in the test on SNB-19 CNS, 2.84 µM; in the test on SR leukemia, above 100 µM.
`Oc1ccc2c(=S)cc(-c3ccc(Br)cc3)oc2c1O`: the GI50 in the test with CAKI-1 renal was 2.65 µM; with HCT-15 colon, 0.853 µM; in the test with HOP-92 NSCLC it was 1.69 µM; in the test on HS 578T breast, 6.69 µM; in the test on NCI-H226 lung it was 7.22 µM; in the test on OVCAR-4 ovarian, 2.03 µM. Moreover, the GI50 with RXF 393 renal is 2.51 µM; with SK-OV-3 ovarian it was 2.6 µM; with SNB-19 CNS, 2.95 µM; in the test with SR leukemia, 2.54 µM. Besides, the TGI with CAKI-1 renal was 15.5 µM; in the test on HCT-15 colon, 12.1 µM; with HOP-92 NSCLC, 6.11 µM; with HS 578T breast, above 100 µM; with NCI-H226 lung, 39.4 µM; in the test on OVCAR-4 ovarian, above 100 µM. The TGI is 8.78 µM in the test on RXF 393 renal, 8.5 µM in the test on SK-OV-3 ovarian, above 100 µM in the test on SNB-19 CNS and 38.1 µM in the test with SR leukemia.
As to `O=C(/C=C/c1ccccc1)c1cccc2ccccc12`, the GI50 in the test on CAKI-1 renal was 2.11 µM; in the test with HCT-15 colon, 3.2 µM; in the test with HOP-92 NSCLC, 2.05 µM; with HS 578T breast, 5.43 µM; with NCI-H226 lung, 1.99 µM; in the test with RXF 393 renal, 2.38 µM. The GI50 was 3.11 µM with SK-OV-3 ovarian, 4.1 µM in the test with SNB-19 CNS and 1.17 µM in the test on SR leukemia. Further, the TGI in the test with CAKI-1 renal was 6.62 µM; in the test on HCT-15 colon, 13.4 µM; in the test on HOP-92 NSCLC it was 6.8 µM; with HS 578T breast, above 100 µM; in the test with NCI-H226 lung, 6.32 µM; in the test with RXF 393 renal it was 8.04 µM. The TGI was found to be 11.3 µM with SK-OV-3 ovarian, 15.3 µM in the test with SNB-19 CNS and 3.75 µM in the test with SR leukemia.
In the case of `CCCCC(=O)N(c1ccc(Nc2c3ccccc3nc3cc([N+](=O)[O-])ccc23)cc1)S(C)(=O)=O`, the GI50 with CAKI-1 renal is 7.03 µM; in the test on HCT-15 colon, 4.45 µM; in the test on HOP-92 NSCLC it was 3.57 µM; with HS 578T breast it was 6.15 µM; in the test with NCI-H226 lung it was 8 µM; with OVCAR-4 ovarian, 11.1 µM. Also, the GI50 with RXF 393 renal is 8.44 µM; with SK-OV-3 ovarian it was 27 µM; in the test with SNB-19 CNS, 7.39 µM; with SR leukemia, 1.97 µM. Further, the TGI with CAKI-1 renal is above 51.9 µM; in the test with HCT-15 colon, 29 µM; with HOP-92 NSCLC it was 21.5 µM; with HS 578T breast it was 48.3 µM; in the test with NCI-H226 lung, 32.9 µM; in the test on OVCAR-4 ovarian, 29.2 µM. The TGI in the test with RXF 393 renal is 27.8 µM; in the test on SK-OV-3 ovarian, above 100 µM; in the test on SNB-19 CNS, above 100 µM; in the test on SR leukemia, above 42.6 µM.
As to `CC12OC(CC(O)C1O)n1c3ccccc3c3c4c(c5c6ccccc6n2c5c31)C(=O)N(CCN1CCOCC1)C4=O` (stereo not given), the GI50 in the test on CAKI-1 renal is 1.02 µM; in the test on HCT-15 colon it was 1.26 µM; with HOP-92 NSCLC, 2.03 µM; in the test on HS 578T breast it was 1.92 µM; with NCI-H226 lung, 1.11 µM; with OVCAR-4 ovarian, 2.2 µM. The GI50 with RXF 393 renal was 1.31 µM; in the test on SK-OV-3 ovarian it was 1.19 µM; in the test with SNB-19 CNS, 1.46 µM; with SR leukemia, 0.176 µM. Also, the TGI stood at 5.43 µM in the test with CAKI-1 renal; 8.21 µM with HCT-15 colon; 9.4 µM in the test with HOP-92 NSCLC; 10.2 µM with HS 578T breast; 4.01 µM with NCI-H226 lung; 12.3 µM with OVCAR-4 ovarian. Moreover, the TGI is 5.03 µM in the test with RXF 393 renal, 4.13 µM with SK-OV-3 ovarian, 13.9 µM in the test with SNB-19 CNS and 6.76 µM in the test with SR leukemia.
As for `NS(=O)(=O)c1ccc(N=Nc2ccc[nH]c2=O)cc1`, the TGI in the test on CAKI-1 renal, in the test with HCT-15 colon, in the test on HOP-92 NSCLC, in the test with HS 578T breast, in the test on NCI-H226 lung and in the test with OVCAR-4 ovarian was above 100 µM throughout. In addition, the TGI in the test on RXF 393 renal, in the test on SK-OV-3 ovarian, in the test with SNB-19 CNS and in the test with SR leukemia was above 100 µM in each case.
Regarding `COC(=O)C1C(C(=O)O)C2(c3ccccc3)C(=O)C1(c1ccccc1)C(c1ccccc1)=C2c1ccccc1` (stereo not given), the GI50 is 20.2 µM in the test on CAKI-1 renal; 32.5 µM in the test on HCT-15 colon; 10.6 µM in the test on HOP-92 NSCLC; 23.4 µM in the test with HS 578T breast; 24.8 µM in the test on NCI-H226 lung; 15.3 µM in the test on OVCAR-4 ovarian. In addition, the GI50 in the test on RXF 393 renal was 16.8 µM; in the test on SK-OV-3 ovarian, 18.3 µM; with SNB-19 CNS it was 11.7 µM; in the test on SR leukemia, 23.8 µM. Further, the TGI is 40.9 µM with CAKI-1 renal; above 100 µM with HCT-15 colon; 30.9 µM in the test on HOP-92 NSCLC; 58 µM with HS 578T breast; 66 µM in the test on NCI-H226 lung; 48.3 µM in the test with OVCAR-4 ovarian. Moreover, the TGI in the test on RXF 393 renal came out at 36.3 µM; in the test with SK-OV-3 ovarian, 36.6 µM; in the test with SNB-19 CNS, 29.5 µM; in the test with SR leukemia, 56.6 µM.
